According to patent US9012500B2, “PKC-ε activator” (Nishizaki Bioinformation Research Institute, priority 2010, dated 2015):

Legend:
[1] = system: glutamic acid release from the hippocampus; assay: Glutamic acid release from rat hippocampus sections (HPLC); type: cell-based
[2] = system: serotonin release from the hypothalamus; assay: Serotonin release from rat hypothalamus sections (HPLC); type: cell-based
PKC-ε = molecular target: T1, PKC-ε (Homo sapiens, UniProt Q02156); assay: PKC assay in cell-free system with PKC isozymes; type: biochemical
T1 sequence (Q02156 1-737): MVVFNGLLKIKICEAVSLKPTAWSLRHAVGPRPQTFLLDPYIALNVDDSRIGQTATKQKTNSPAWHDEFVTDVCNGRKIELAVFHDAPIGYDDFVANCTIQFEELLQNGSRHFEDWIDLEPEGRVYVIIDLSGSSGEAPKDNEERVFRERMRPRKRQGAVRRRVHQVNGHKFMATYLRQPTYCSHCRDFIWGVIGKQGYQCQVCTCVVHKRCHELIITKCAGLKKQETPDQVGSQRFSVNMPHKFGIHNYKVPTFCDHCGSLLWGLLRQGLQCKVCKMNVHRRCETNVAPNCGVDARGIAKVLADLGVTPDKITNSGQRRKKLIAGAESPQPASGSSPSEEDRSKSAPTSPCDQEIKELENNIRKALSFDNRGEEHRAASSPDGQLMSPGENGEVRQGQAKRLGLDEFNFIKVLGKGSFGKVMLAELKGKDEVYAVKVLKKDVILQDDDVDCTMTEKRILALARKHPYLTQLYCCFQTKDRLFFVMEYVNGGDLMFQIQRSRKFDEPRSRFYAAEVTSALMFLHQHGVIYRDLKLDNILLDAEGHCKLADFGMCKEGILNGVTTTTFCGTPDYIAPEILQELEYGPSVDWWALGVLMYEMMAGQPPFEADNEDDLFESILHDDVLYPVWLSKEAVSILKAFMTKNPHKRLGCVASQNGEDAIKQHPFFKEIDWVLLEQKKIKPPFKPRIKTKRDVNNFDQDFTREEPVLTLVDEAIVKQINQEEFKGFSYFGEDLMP
Procedure: The PKC activity in a cell-free system was quantified by the method described in a publication [Kanno T et al., J Lipid Res 47 (6):1146-1156, 2006]. The summary is as described below.
Synthetic PKC substrate peptide (10 μM) was reacted with various PKC isozymes in a medium containing 20 mM Tris-HCl (pH 7.5), 5 mM Mg-acetate, 10 μM ATP and each DCP-LA optical isomer (10 μM) in the absence of phosphatidylserine and diacylglycerol at 30° C. for 5 min. When the activity with new types of PKC (PKC-δ, -ε, -η and -μ) was to be measured, a medium free of Ca^2+ was used and when the activity with other PKC isozyme was to be measured, a medium containing 100 μM Ca^2+ was used. After loading on reversed-phase HPLC (LC-10ATvp, Shimadzu Co., Kyoto, Japan), a substrate peptide peak and a new resultant product peak were detected at the absorbance of 214 nm. The areas of the non-phosphorylated and phosphorylated substrate peptides m were measured (total area corresponds to the concentration of PKC substrate peptide used), and the amount of phosphorylated substrate peptide was calculated. The phosphorylated substrate peptide level (pmol/l min) was used as an index of PKC activity.

activation of PKC isozymes in cell-free system (selectivity) (PKC-ε; 10 μM, absence of phosphatidylserine and diacylglycerol, FIG. 4): selective and direct activation of PKC-ε | PKC-ε activation action compared to the other optical isomers (PKC-ε; cell-free system, 10 μM, FIG. 6): highest ability | concentration at which the PKC activation action reaches maximum (bell-shaped) (PKC-ε; cell-free system, FIG. 5): about 25 μM
SMILES: CCCCC[C@@H]1C[C@@H]1C[C@@H]1C[C@H]1CCCCCCCC(=O)O [α,β-DCP-LA, 8-[(1R,2S)-2-{(1R,2R)-2-pentylcyclopropylmethyl}-cyclopropyl]octanoic acid]
glutamic acid release stimulation action compared to the other optical isomers ([1]; 100 nM, in the presence of nicotine (1 μM), FIG. 7): remarkably high | concentration at which glutamic acid release stimulation action reaches maximum (bell-shaped) ([1]; rat hippocampus sections, FIG. 8): about 100 nM | glutamic acid release, substance alone vs non-treated group ([1]; treated alone, FIG. 9): did not show a remarkable difference | effect on glutamic acid release caused by nicotine ([1]; with nicotine (1 μM), FIG. 9): remarkably enhanced | serotonin release stimulation action compared to the other optical isomers ([2]; 100 nM, in the presence of nicotine (1 μM), FIG. 13): remarkably high | concentration at which serotonin release stimulation action reaches maximum (bell-shaped) ([2]; rat hypothalamus sections, FIG. 14): about 100 nM | serotonin release, substance alone vs non-treated group ([2]; treated alone, FIG. 15): did not show a remarkable difference | effect on serotonin release caused by nicotine ([2]; with nicotine (1 μM), FIG. 15): remarkably enhanced
